According to patent US11986530B2, “Drug composition for parenteral administration” (THERABIOPHARMA INC., priority 2016, dated 2024):
Values belong to the compound of their own block, whether it stands above or below them.

Columns and labels:
[1] = Intravenous administration test: concentration of curcumin conjugates and free curcumin in plasma; assay type: in vivo, SD rats; conditions: rat
Description: As the test animals, 9-week old SD rats (male, with a body weight of 330 to 360 g, CHARLES RIVER LABORATORIES JAPAN, INC.) were used.
The intravenous administration was performed as follows: a predetermined amount of the curcumin monoglucuronide prepared in Production Example 1 was dissolved into water for injection so as to be 30 mg/kg; and the obtained preparation was administered intravenously to each of the test animals (n=5) fasted for 12 hours or more before the administration via an indwelling catheter in the femoral artery of each of the test animals. In this regard, the catheter was indwelled in the femoral artery under isoflurane anesthesia on the day of administration and blood collection.
Blood was collected via a catheter from the femoral artery of each of test animals by using a heparin-treated syringe under the restraint condition in a Ballman cage without anesthesia. In this regard, around 0.6 mL of blood was collected after each lapse of 1, 3, 5, 10, 15, 30, 60, 120, 240 and 480 minutes from the start of intravenous administration, and the collected blood was centrifuged (at 3,000 rpm, for 10 minutes, at 4° C.) to obtain the plasma.
The concentration of each of the curcumin conjugate and free curcumin in plasma was determined by the following methods.
Further, this fractionation process was repeated twice.
In this regard, in the following test, a supernatant liquid prepared by using a β-glucuronidase solution was used as an enzyme-treated sample, and a supernatant liquid prepared by using distilled water in place of the β-glucuronidase solution was used as a non-enzyme-treated sample.
By analyzing 2 μL of the enzyme-treated or non-enzyme-treated sample prepared in the above-described “a. Pretreatment” using LC-MS/MS (manufactured by Shimadzu Corporation), the concentration of each of the curcumin conjugate and free curcumin in plasma was determined.
That is, by measuring the concentration of the curcumin contained in the enzyme-treated sample that had been obtained by the treatment with β-glucuronidase, the total concentration of curcumin in plasma was measured.
On the other hand, by measuring the concentration of the curcumin in the non-enzyme-treated sample that had not been treated with β-glucuronidase, the concentration of free curcumin in plasma was measured.
Further, by subtracting the concentration of free curcumin from the total concentration of curcumin, the concentration of the curcumin conjugates contained in plasma was calculated.
In this regard, the LC-MS/MS analysis conditions were set to be a LC column of Atlantis T3 (2.1×150 mm, 3 μm, manufactured by Waters), a column temperature of 40° C., a flow rate of 0.2 mL/min, and a mobile phase of A of a 0.1% formic acid aqueous solution and B of 0.1% formic acid/acetonitrile, and the gradient elution was performed under the following conditions (Table 1). In addition, the MS analysis conditions were set to be an ionization mode of […] (ESI), Positive, a measurement mode of Multiple Reaction Monitoring (MRM), curcumin of 369.1→177.2 (m/z), and mepronil of 270→119 (m/z), and the evaluation was performed.

[2] = system: colorectal cancer cells derived from adult human colon HCT116; assay: Anti-tumor effect by intravenous administration of curcumin conjugates (tumor size, HCT116 transplanted mice); assay type: in vivo, BALB/cAnNcr j-nu/nu (homo) mice; conditions: parenteral (i.v.) administration, 30 or 90 mg/kg, versus control group
Source text: 1×10^7 or 4×10^6 colorectal cancer cells derived from adult human […] colon HCT116 (ATCC No. CCL-247) were transplanted subcutaneously into the flank of each of the test animals by using a 27 G injection needle.
In this regard, in the control group, mice to which water for injection excluding curcumin monoglucuronide had been administered intravenously were used.
For the tumor size, after each lapse of 0, 4, 7, 11 and 14 days from the start of administration or after each lapse of 0, 4, 7, 11, 14, 18 and 21 days from the start of administration, the length, width and height of the tumor were measured by using a vernier caliper, and the tumor size was calculated by the following equation. Tumor size (mm^3)=length×width×height×0.5 (5) Concentration of Curcumin Conjugates and Free Curcumin in Tumor Tissue

[3] = Concentration of curcumin conjugates and free curcumin in tumor tissue; assay type: in vivo, BALB/cAnNcr j-nu/nu (homo) mice; conditions: mouse, day 21
Description: For the mice (n=8) inoculated with the 4×10^6 cancer cells (HCT116), the tumor after the lapse of 2 hours from the intravenous administration of curcumin monoglucuronide (90 mg/kg) after the lapse of 21 days from the start of inoculation was removed from each of the mice, the removed tumor was rinsed with a saline solution, and then immediately frozen in liquid nitrogen, and the frozen tumor was stored in an ultra-low temperature tank at −80° C.
The frozen and stored tumor was thawed while cooling in ice, an adequate amount of a saline solution was added to the thawed tumor, and the thus obtained tumor was homogenized with a glass homogenizer, the concentration of each of the curcumin conjugates and free curcumin in the pulverized tumor obtained as described above were measured to examine the concentration of each of the curcumin conjugates and free curcumin contained in the tumor tissue.

[4] = system: KBM-5; conditions: KBM-5, in vitro; cited from earlier work
[5] = system: Jurkat cells; conditions: in vitro; cited from earlier work
[6] = system: U266; conditions: U266, in vitro; cited from earlier work
[7] = system: A549; conditions: A549, in vitro; cited from earlier work
[8] = system: human hepatocellular carcinoma cell lines (HepG2 cells); conditions: cited from earlier work
[9] = cited from earlier work
[10] = system: β-glucuronidase; conditions: 10 μL of 2.45 μg/mL substrate, pH 5.0, 37° C., 1 hour, n=3
Description: In this regard, as a control, curcumin monoglucuronide was used for the examination.
In addition, as the curcumin diglucuronide, commercially available curcumin diglucuronide (manufactured by SynInnova Laboratories Inc.) was used.
Next, into the resultant mixture, 0.5 mL of chloroform was added, and the mixture was stirred for 1 minute with a vortex mixer, and then the stirred mixture was treated for 15 minutes by using an ultrasonic generator, and the treated mixture was fractionated into a chloroform layer and a water layer by centrifugation (10,000×g, for 5 minutes, at room temperature). Further, this fractionation process was repeated twice. After that, the chloroform layer was collected, and dried and solidified by distilling off the solvent with a vacuum centrifugal concentrator, and to the dried and solidified matter, 100 μL of 50% (v/v) methanol was added, and then the resultant mixture was centrifuged (10,000×g, for 5 minutes, at room temperature) to collect a supernatant liquid, and the collected supernatant liquid was taken as an enzyme-treated sample.
In 2 μL of the enzyme-treated sample prepared in the above (2), free curcumin was measured by the method described in “b.

Cmax (ng/mL) of curcumin conjugates in plasma ([1]; 30 mg/kg i.v.): 160492 ± 19156 ng/mL
AUC 0.02-8 h (ng·h/mL) of free curcumin in plasma ([1]; 30 mg/kg i.v. of conjugate): 2780 ± 962 ng·h/mL
Cmax (ng/mL) of free curcumin in plasma ([1]; 30 mg/kg i.v. of conjugate): 10143 ± 3832 ng/mL
concentration of free curcumin in plasma ([1]; 30 mg/kg i.v. of conjugate, 1 minute after administration): 10143 ± 3832 ng/mL
concentration of free curcumin in plasma ([1]; 30 mg/kg i.v. of conjugate, 3 minutes): 7562 ± 2903 ng/mL
concentration of free curcumin in plasma ([1]; 30 mg/kg i.v. of conjugate, 5 minutes): 5707 ± 2539 ng/mL
concentration of free curcumin in plasma ([1]; 30 mg/kg i.v. of conjugate, 10 minutes): 3596 ± 1233 ng/mL
concentration of free curcumin in plasma ([1]; 30 mg/kg i.v. of conjugate, 15 minutes): 2764 ± 796 ng/mL
concentration of free curcumin in plasma ([1]; 30 mg/kg i.v. of conjugate, 30 minutes): 1605 ± 592 ng/mL
concentration of free curcumin in plasma ([1]; 30 mg/kg i.v. of conjugate, 1 hour): 568 ± 197 ng/mL
concentration of free curcumin in plasma ([1]; 30 mg/kg i.v. of conjugate, 2 hours): 117 ± 39 ng/mL
concentration of free curcumin in plasma ([1]; 30 mg/kg i.v. of conjugate, 4 hours): 16 ± 5 ng/mL
concentration of free curcumin in plasma ([1]; 30 mg/kg i.v. of conjugate, 8 hours): 6 ± 14 ng/mL
concentration of curcumin conjugates in plasma ([1]; 30 mg/kg i.v., 1 minute after administration): 160492 ± 19156 ng/mL
concentration of curcumin conjugates in plasma ([1]; 30 mg/kg i.v., 3 minutes): 77803 ± 6442 ng/mL
concentration of curcumin conjugates in plasma ([1]; 30 mg/kg i.v., 5 minutes): 80489 ± 7161 ng/mL
concentration of curcumin conjugates in plasma ([1]; 30 mg/kg i.v., 10 minutes): 46853 ± 10700 ng/mL
concentration of curcumin conjugates in plasma ([1]; 30 mg/kg i.v., 15 minutes): 22918 ± 5271 ng/mL
concentration of curcumin conjugates in plasma ([1]; 30 mg/kg i.v., 30 minutes): 10191 ± 3502 ng/mL
concentration of curcumin conjugates in plasma ([1]; 30 mg/kg i.v., 1 hour): 4363 ± 1354 ng/mL
concentration of curcumin conjugates in plasma ([1]; 30 mg/kg i.v., 2 hours): 1493 ± 371 ng/mL
concentration of curcumin conjugates in plasma ([1]; 30 mg/kg i.v., 4 hours): 403 ± 120 ng/mL
concentration of curcumin conjugates in plasma ([1]; 30 mg/kg i.v., 8 hours): 78 ± 39 ng/mL
concentration of the free curcumin in the tumor tissue ([3]; 2 hours after 90 mg/kg i.v. of conjugate): 1464.5 ± 840.9 ng/g
concentration of the curcumin conjugates in the tumor tissue ([3]; 2 hours after 90 mg/kg i.v.): 605.4 ± 465.5 ng/g
Compound: COc1cc(/C=C/C(=O)CC(=O)/C=C/c2ccc(O[C@@H]3O[C@H](C(=O)O)[C@@H](O)[C@H](O)[C@H]3O)c(OC)c2)ccc1O [curcumin monoglucuronide]
effect on tumor growth (in words) [2]: significantly suppressing the tumor growth

Compound: COc1cc(/C=C/C(=O)/C=C(O)/C=C/c2ccc(O)c(OC)c2)ccc1O [curcumin]
cell growth inhibitory effect [4]: has an effect of suppressing the growth of these cells
cell growth inhibitory effect [5]: has an effect of suppressing the growth of these cells
cell growth inhibitory effect [6]: has an effect of suppressing the growth of these cells
cell growth inhibitory effect [7]: has an effect of suppressing the growth of these cells
cell growth inhibitory effect [8]: found the cell growth inhibitory effect
solubility in water [9]: hardly soluble in water

Compound: COc1cc(/C=C/C(=O)CC(=O)/C=C/c2ccc(O[C@@H]3O[C@H](C(=O)O)[C@@H](O)[C@H](O)[C@H]3O)c(OC)c2)ccc1O[C@@H]1O[C@H](C(=O)O)[C@@H](O)[C@H](O)[C@H]1O [curcumin diglucuronide]
concentration of the curcumin contained in the enzyme-treated sample [10]: 82.4 ± 0.8 ng/mL
cell growth inhibitory effect [4]: there is no such an effect
cell growth inhibitory effect [5]: there is no such an effect
cell growth inhibitory effect [6]: there is no such an effect
cell growth inhibitory effect [7]: there is no such an effect
